Source: patent US4150153A, “1-(Naphthylethyl)imidazole derivatives” (Syntex (U.S.A.) Inc., priority 1977, dated 1979)

Legend:
[1] = lethalities in mice after a single intraperitoneal dose; conditions: mouse, in vivo, ip, single dose intraperitoneally, lethalities determined after five days, doses 1-1,000 mg/kg
Method: Groups of 3 male ICR derived mice weighing 18-24 grams were given a single dose of compound intraperitoneally. The following doses were employed: 1, 3, 10, 30, 100, 300 or 1,000 mg/kg. After five days lethalities were determined.

[2] = test system: male Hilltop ICR-derived mice; assay: Maximal Electroshock Test in Mice; type: in vivo; conditions: intraperitoneally 15 minutes prior to transcorneal maximal electroshock (50 milliamps, 0.2 seconds), antagonizing tonic extension, in parentheses 95% confidence limits; for ED50: Mus musculus, ip, 0.25 h
Method: Maximal Electroshock Test in Mice
This test was performed in the standard manner, essentially as described by Swinyard et al., J. Pharm.
Groups of 10 male Hilltop ICR-derived mice weighing 20-30 grams were dosed intraperitoneally with a solution or suspension of drug in saline 15 minutes prior to a transcorneal maximal electroshock (50 milliamps, 0.2 seconds).

SMILES | LD50 at 120 h [1] [mg/kg] | ED50 [2] [mg/kg] | ED50 (95% confidence limits) [2]
O=C(Cn1ccnc1)c1cccc2ccccc12 [1-(1-naphthoylmethyl)imidazole] | 100 to 300 | ~60 | 
O=C(Cn1ccnc1)c1ccc2ccccc2c1 [1-(2-naphthoylmethyl)imidazole] | 100 to 300 | 23 | 
CC1CSC(Cn2ccnc2)(c2ccc3ccccc3c2)S1.Cl (stereo not drawn) [1-[2,2-(1,2-propylenedithio)-2-(2-naphthyl)ethyl]imidazole hydrochloride] |  |  | 65 (55-73) mg/kg
c1ccc2cc(C3(Cn4ccnc4)OCCCO3)ccc2c1 [1-[2,2-(1,3-propylenedioxy)-2-(2-naphthyl)ethyl]imidazole] |  | 17 | 
CC1CCOC(Cn2ccnc2)(c2ccc3ccccc3c2)O1 (stereo not drawn) [1-[2,2-(1-methyl-1,3-propylenedioxy)-2-(2-naphthyl)ethyl]imidazole] |  | 19 | 
CC1(C)COC(Cn2ccnc2)(c2ccc3ccccc3c2)OC1 [1-[2,2-(2,2-dimethyl-1,3-propylenedioxy)-2-(2-naphthyl)ethyl]imidazole] |  | 26 | 
CCSC(Cn1ccnc1)(SCC)c1ccc2ccccc2c1 [1-[2,2-bis(ethylthio)-2-(2-naphthyl)ethyl]imidazole] |  | 35 | 
CSC(Cn1ccnc1)(SC)c1ccc2ccccc2c1 [1-[2,2-bis(methylthio)-2-(2-naphthyl)ethyl]imidazole] |  | 32 | 
c1ccc2c(C3(Cn4ccnc4)OCCO3)cccc2c1 [1-[2,2-ethylenedioxy-2-(1-naphthyl)ethyl]imidazole] |  | 19 | 
c1ccc2cc(C3(Cn4ccnc4)OCCO3)ccc2c1 [1-[2,2-ethylenedioxy-2-(2-naphthyl)ethyl]imidazole] | 100 to 300 | 12 | 
c1ccc2cc(C3(Cn4ccnc4)SCCS3)ccc2c1 [1-[2,2-ethylenedithio-2-(2-naphthyl)ethyl]imidazole] |  | 26 | 
OC(Cn1ccnc1)c1cccc2ccccc12 (stereo not drawn) [1-[2-hydroxy-2-(1-naphthyl)ethyl]imidazole] | 300 to 1000 | 37 | 
OC(Cn1ccnc1)c1ccc2ccccc2c1 (stereo not drawn) [1-[2-hydroxy-2-(2-naphthyl)ethyl]imidazole] | 300 to 1000 | 74 | 
